We go through 4 compounds from patent US12252524B2, “GIP/GLP1 co-agonist compounds” (Eli Lilly and Company, priority 2018, dated 2025).

Test [1] has as its target human GLP-1 receptor (GLP-1R) (Homo sapiens, UniProt P43220). The test can be described thus: cAMP pharmacological functional assay in presence of casein, hGLP-1R. The note with it: HEK293 cells expressing hGLP-1R, 0.1% Casein, geometric mean; read-out: hGLP1R cAMP Rel EC50 nM (SEM, n). It counts as cell-based.
Test [2] addresses T1, gastric inhibitory peptide receptor (GIPR) (Homo sapiens, UniProt P48546).
T1 sequence (P48546 22-466): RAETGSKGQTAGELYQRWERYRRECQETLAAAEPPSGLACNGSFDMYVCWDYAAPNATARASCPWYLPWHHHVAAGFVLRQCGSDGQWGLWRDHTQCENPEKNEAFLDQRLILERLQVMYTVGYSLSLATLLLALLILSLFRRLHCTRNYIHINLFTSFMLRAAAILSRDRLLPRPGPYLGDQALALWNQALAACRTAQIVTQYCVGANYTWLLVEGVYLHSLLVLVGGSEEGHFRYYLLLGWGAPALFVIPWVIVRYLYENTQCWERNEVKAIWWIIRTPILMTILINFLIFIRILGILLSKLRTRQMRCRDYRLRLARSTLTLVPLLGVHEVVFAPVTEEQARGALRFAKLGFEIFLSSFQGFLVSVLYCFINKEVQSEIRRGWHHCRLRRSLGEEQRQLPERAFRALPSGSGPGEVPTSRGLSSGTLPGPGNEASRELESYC
The test can be described thus: cAMP pharmacological functional assay in presence of casein, hGIPR. The note with it: HEK293 cells expressing hGIPR, 0.1% Casein, geometric mean; read-out: hGIPR cAMP Rel EC50 nM (SEM, n). It counts as cell-based.

The target in test [3] is T2, human GIP receptor (Homo sapiens, UniProt P48546).
T2 construct: expressed in transfected cells; crude membranes
T2 sequence (P48546 22-466): T1 sequence (P48546 22-466)
The test can be described thus: [125I]-GIP binding (SPA), human GIP receptor. The note with it: read-out: hGIPR Ki, nM (SEM, n).

Test [4] concerns the target T3, human Gcg receptor (Homo sapiens, UniProt P47871).
T3 construct: expressed in transfected cells; crude membranes
The test can be described thus: [125I]-Glucagon binding (SPA), human Gcg receptor. The note with it: read-out: hGLcgR Ki, nM (SEM, n). In outline:
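Scintillation counts are taken after membranes and WGA beads incubate and settle for 12 hours at room temperature. Buffer is 25 mM HEPES, pH 7.4, with CaCl2, MgCl2, bacitracin and Tween-20. Ki values, from four-parameter IC50 fits, are geometric means over independent days.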

The target of test [5] is human GLP-1R (Homo sapiens, UniProt P43220). The test can be described thus: [125I]-GLP-1 binding (SPA), human GLP-1 receptor. Further details: expressed in transfected cells; crude membranes. The note with it: read-out: hGLP1R Ki, (nM) (SEM, n). In outline: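 Crude-membrane binding assay; one membrane prep included 1 mM MgCl2 and 25 units/ml DNAse I during lysis. Assay buffer at pH 7.4 contains 0.1% (w/v) bacitracin and 0.003% (w/v) TWEEN-20. Ki is reported as geometric mean.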

Numbered stars: 1 amine (or outer) side, 2 acyl side, 3 side chain; on linkers, the order of the positions; unused ones are H or OH. Square brackets hold non-standard residues; d marks the D form. Side chains are listed from the residue outwards. Peptide text beside a SMILES is read from it. * marks the point of attachment. C20 diacid = O=C(O)CCCCCCCCCCCCCCCCCCC(=O)*; αMePhe(2-F) = C[C@](N)(Cc1ccccc1F)C(=O)O; γGlu = O=C(O)[C@H](CCC(=O)[*:2])N[*:1]; αMeF = C[C@](N)(Cc1ccccc1)C(=O)O; αMeL = CC(C)C[C@](C)(N)C(=O)O; AEEA = NCCOCCOCC(=O)O; Aib = CC(C)(N)C(=O)O

T3 sequence (P47871 26-477): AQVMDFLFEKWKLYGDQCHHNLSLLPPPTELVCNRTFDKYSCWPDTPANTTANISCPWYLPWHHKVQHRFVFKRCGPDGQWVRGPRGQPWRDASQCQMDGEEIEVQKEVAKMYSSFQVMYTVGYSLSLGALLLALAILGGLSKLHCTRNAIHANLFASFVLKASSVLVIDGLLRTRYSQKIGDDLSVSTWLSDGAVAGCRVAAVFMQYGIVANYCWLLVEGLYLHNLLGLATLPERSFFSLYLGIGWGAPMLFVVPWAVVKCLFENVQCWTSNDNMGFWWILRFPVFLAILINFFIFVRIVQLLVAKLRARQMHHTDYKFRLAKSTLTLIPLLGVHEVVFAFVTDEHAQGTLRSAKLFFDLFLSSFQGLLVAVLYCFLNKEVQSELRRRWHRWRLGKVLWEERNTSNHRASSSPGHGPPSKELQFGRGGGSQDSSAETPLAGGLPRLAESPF
Chain of human GLP-1 receptor (GLP-1R) (P43220 24-463): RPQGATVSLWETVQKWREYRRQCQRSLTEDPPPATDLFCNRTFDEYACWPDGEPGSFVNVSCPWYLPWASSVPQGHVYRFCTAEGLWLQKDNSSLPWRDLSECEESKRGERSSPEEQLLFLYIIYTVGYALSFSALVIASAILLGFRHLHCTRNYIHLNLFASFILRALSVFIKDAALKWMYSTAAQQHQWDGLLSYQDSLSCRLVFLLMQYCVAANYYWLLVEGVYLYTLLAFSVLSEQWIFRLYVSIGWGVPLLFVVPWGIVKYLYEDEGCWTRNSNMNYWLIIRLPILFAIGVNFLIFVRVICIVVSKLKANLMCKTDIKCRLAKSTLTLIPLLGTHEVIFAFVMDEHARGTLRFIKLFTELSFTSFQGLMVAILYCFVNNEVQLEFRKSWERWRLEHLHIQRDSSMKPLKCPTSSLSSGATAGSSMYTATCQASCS
Chain of human GLP-1R (P43220 24-463): as above

In the case of `CC[C@H](C)[C@H](NC(=O)[C@H](CC(C)C)NC(=O)[C@H](Cc1ccc(O)cc1)NC(=O)[C@H](CCC(=O)O)NC(=O)[C@@H](NC(=O)[C@H](Cc1ccccc1)NC(=O)[C@H](C)NC(=O)C(C)(C)NC(=O)[C@H](CCC(N)=O)NC(=O)[C@H](C)NC(=O)[C@H](CCCCNC(=O)COCCOCCNC(=O)COCCOCCNC(=O)CC[C@H](NC(=O)CCCCCCCCCCCCCCCCCCC(=O)O)C(=O)O)NC(=O)[C@H](CCC(=O)O)NC(=O)[C@H](CC(=O)O)NC(=O)[C@H](CC(C)C)NC(=O)[C@](C)(CC(C)C)NC(=O)[C@@H](NC(=O)[C@H](CO)NC(=O)[C@H](Cc1ccc(O)cc1)NC(=O)[C@H](CC(=O)O)NC(=O)[C@H](CO)NC(=O)[C@@H](NC(=O)[C@](C)(Cc1ccccc1)NC(=O)[C@@H](NC(=O)CNC(=O)[C@H](CCC(=O)O)NC(=O)C(C)(C)NC(=O)[C@@H](N)Cc1ccc(O)cc1)[C@@H](C)O)[C@@H](C)O)[C@@H](C)CC)[C@@H](C)CC)C(=O)N[C@@H](CCC(=O)O)C(=O)NCC(=O)NCC(=O)N1CCC[C@H]1C(=O)N[C@@H](CO)C(=O)N[C@@H](CO)C(=O)NCC(=O)N[C@@H](C)C(=O)N1CCC[C@H]1C(=O)N1CCC[C@H]1C(=O)N1CCC[C@H]1C(=O)N[C@@H](CO)C(N)=O` [Example 115] (H-Y[Aib]EGT[αMeF]TSDYSI[αMeL]LDEK([AEEA-AEEA-γGlu-C20 diacid])AQ[Aib]AFIEYLIEGGPSSGAPPPS-NH2), the EC50 came to 0.088 nM in test [1] and 0.102 nM in test [2]. The values for the Ki in test [3], in test [4] and in test [5] were 0.0302 nM, 9.89 nM and 3.43 nM, respectively.
For `CC[C@H](C)[C@H](NC(=O)[C@H](CC(C)C)NC(=O)[C@H](Cc1ccc(O)cc1)NC(=O)[C@H](CCC(=O)O)NC(=O)[C@@H](NC(=O)[C@H](Cc1ccccc1)NC(=O)[C@H](CCC(=O)O)NC(=O)C(C)(C)NC(=O)[C@H](CCC(N)=O)NC(=O)[C@H](C)NC(=O)[C@H](CCCCNC(=O)COCCOCCNC(=O)COCCOCCNC(=O)CC[C@H](NC(=O)CCCCCCCCCCCCCCCCCCC(=O)O)C(=O)O)NC(=O)[C@H](CCC(=O)O)NC(=O)[C@H](CC(=O)O)NC(=O)[C@H](CC(C)C)NC(=O)[C@](C)(CC(C)C)NC(=O)[C@@H](NC(=O)[C@H](CO)NC(=O)[C@H](Cc1ccc(O)cc1)NC(=O)[C@H](CC(=O)O)NC(=O)[C@H](CO)NC(=O)[C@@H](NC(=O)[C@](C)(Cc1ccccc1)NC(=O)[C@@H](NC(=O)CNC(=O)[C@H](CCC(=O)O)NC(=O)C(C)(C)NC(=O)[C@@H](N)Cc1ccc(O)cc1)[C@@H](C)O)[C@@H](C)O)[C@@H](C)CC)[C@@H](C)CC)C(=O)N[C@@H](CCC(=O)O)C(=O)NCC(=O)NCC(=O)N1CCC[C@H]1C(=O)N[C@@H](CO)C(=O)N[C@@H](CO)C(=O)NCC(=O)N[C@@H](C)C(=O)N1CCC[C@H]1C(=O)N1CCC[C@H]1C(=O)N1CCC[C@H]1C(=O)N[C@@H](CO)C(N)=O` [Example 116] (H-Y[Aib]EGT[αMeF]TSDYSI[αMeL]LDEK([AEEA-AEEA-γGlu-C20 diacid])AQ[Aib]EFIEYLIEGGPSSGAPPPS-NH2) the same measures were 0.0703 nM, 0.0867 nM, 0.0597 nM, 137 nM and 6.8 nM.
With `CC[C@H](C)[C@H](NC(=O)[C@H](CC(C)C)NC(=O)[C@H](Cc1ccc(O)cc1)NC(=O)[C@H](CCC(=O)O)NC(=O)[C@@H](NC(=O)[C@H](Cc1ccccc1)NC(=O)[C@H](C)NC(=O)C(C)(C)NC(=O)[C@H](CCC(N)=O)NC(=O)[C@H](C)NC(=O)[C@H](CCCCNC(=O)COCCOCCNC(=O)COCCOCCNC(=O)CC[C@H](NC(=O)CCCCCCCCCCCCCCCCCCC(=O)O)C(=O)O)NC(=O)[C@H](CCC(=O)O)NC(=O)[C@H](CC(=O)O)NC(=O)[C@H](CC(C)C)NC(=O)C(C)(C)NC(=O)[C@@H](NC(=O)[C@H](CO)NC(=O)[C@H](Cc1ccc(O)cc1)NC(=O)[C@H](CC(=O)O)NC(=O)[C@H](CO)NC(=O)[C@@H](NC(=O)[C@](C)(Cc1ccccc1)NC(=O)[C@@H](NC(=O)CNC(=O)[C@H](CCC(=O)O)NC(=O)C(C)(C)NC(=O)[C@@H](N)Cc1ccc(O)cc1)[C@@H](C)O)[C@@H](C)O)[C@@H](C)CC)[C@@H](C)CC)C(=O)N[C@@H](CCC(=O)O)C(=O)NCC(=O)NCC(=O)N1CCC[C@H]1C(=O)N[C@@H](CO)C(=O)N[C@@H](CO)C(=O)NCC(=O)N[C@@H](C)C(=O)N1CCC[C@H]1C(=O)N1CCC[C@H]1C(=O)N1CCC[C@H]1C(=O)N[C@@H](CO)C(N)=O` [Example 117] (H-Y[Aib]EGT[αMeF]TSDYSI[Aib]LDEK([AEEA-AEEA-γGlu-C20 diacid])AQ[Aib]AFIEYLIEGGPSSGAPPPS-NH2), the results for the EC50 in test [1] and in test [2] were 0.0615 nM and 0.0648 nM, respectively. Further, the Ki was determined as 0.0497 nM in test [3], 192 nM in test [4] and 6.96 nM in test [5].
In the same order, the values of `CC[C@H](C)[C@H](NC(=O)[C@H](CC(C)C)NC(=O)[C@H](Cc1ccc(O)cc1)NC(=O)[C@H](CCC(=O)O)NC(=O)[C@@H](NC(=O)[C@H](Cc1ccccc1)NC(=O)[C@H](CCC(=O)O)NC(=O)C(C)(C)NC(=O)[C@H](CCC(N)=O)NC(=O)[C@H](C)NC(=O)[C@H](CCCCNC(=O)COCCOCCNC(=O)COCCOCCNC(=O)CC[C@H](NC(=O)CCCCCCCCCCCCCCCCCCC(=O)O)C(=O)O)NC(=O)[C@H](CCC(=O)O)NC(=O)[C@H](CC(=O)O)NC(=O)[C@H](CC(C)C)NC(=O)[C@](C)(CC(C)C)NC(=O)[C@@H](NC(=O)[C@H](CO)NC(=O)[C@H](Cc1ccc(O)cc1)NC(=O)[C@H](CC(=O)O)NC(=O)[C@H](CO)NC(=O)[C@@H](NC(=O)[C@](C)(Cc1ccccc1F)NC(=O)[C@@H](NC(=O)CNC(=O)[C@H](CCC(=O)O)NC(=O)C(C)(C)NC(=O)[C@@H](N)Cc1ccc(O)cc1)[C@@H](C)O)[C@@H](C)O)[C@@H](C)CC)[C@@H](C)CC)C(=O)N[C@@H](CCC(=O)O)C(=O)NCC(=O)NCC(=O)N1CCC[C@H]1C(=O)N[C@@H](CO)C(=O)N[C@@H](CO)C(=O)NCC(=O)N[C@@H](C)C(=O)N1CCC[C@H]1C(=O)N1CCC[C@H]1C(=O)N1CCC[C@H]1C(=O)N[C@@H](CO)C(N)=O` [Example 118] (H-Y[Aib]EGT[αMePhe(2-F)]TSDYSI[αMeL]LDEK([AEEA-AEEA-γGlu-C20 diacid])AQ[Aib]EFIEYLIEGGPSSGAPPPS-NH2) are 0.0588 nM, 0.0538 nM, 0.0859 nM, 53 nM and 6.1 nM.

Broadly, the EC50 is the concentration at which the effect is half-maximal. What is called Ki is a measure of affinity in units of concentration, obtained from inhibition or displacement.
